Data published in patent publication US8314250B2, “Sultam derivatives” (Hoffmann-La Roche Inc., priority 2009, dated 2012).
pIC50: −log10 of the molar value.

What was measured:
Assay type in all cases: cell-based
HeLa cells = test: CellTiter-Glo luminescent cell viability (cytotoxicity) assay; conditions: 10 μM test compound, inhibition of luminescence compared to control cells
Experimental: Cytotoxicity was assessed using Promega's CellTiter-Glo® luminescent cell viability assay (Promega Corporation, Madison, Wis., USA) as described in Promega Technical Bulletin TB288, revised August 2008. The assay was performed in HeLa cells at a maximum concentration tested of 10 μM of test compound. This assay measures the amount of adenosine triphosphate (ATP) present as a way of quantifying the presence and degree of metabolic activity in cell cultures.
Viable Hela cells were plated at a density of 3000 cells/well in 96 wells in black, clear bottom plates. Cells were allowed to attach to the plate by incubating overnight at 37° C. Test compounds were diluted in DMSO then further diluted in 10% FBS media. Media was removed from the cell plates and 50 μL of the solution was added to each well manually with the exception of the control well, which contained the same volume of 10% FBS media which includes 1% DMSO. Cells were incubated in the presence of compound undisturbed for 48 hours at 37° C. After the 48 hour compound exposure, 50 μL of the pCellTiter Glo® reagent was added. The cell plates were agitated on a shaker for 2 minutes to help lyse the cells. The plate was covered and read for luminescence.
Percent inhibition was calculated as follows: PCT_INHIB=100*[(U−T)/U] Where U represents the Luminescence of wells containing untreated cells and
T represents the Luminescence of wells containing compound-treated cells

H146 cell line = test: MTS tetrazolium assay (proliferation, non-adherent cell line); conditions: H146 cells, 5 days; for pIC50: 50% inhibition of cell proliferation; for IC90: 90% inhibition of cell proliferation
Experimental: Proliferation was evaluated in a non-adherent cell line using the MTS tetrazolium dye assay according to the procedure of Malich and colleagues (G. Malich et al. Toxicology 1997, 124, 179-192). The cell line used was H146 (ATCC Number HTB-173™). The cells were grown in RPMI 1640 medium supplemented with 2.5% fetal bovine serum.
Cells were seeded into clear 96 well tissue culture treated plates at 20,000 cells per well. Plates were incubated overnight at 37° C. in a humidified incubator with 5% CO2. The next day, test compounds were serially diluted to three times the final concentration in the appropriate growth medium. 50 μL of a 3× dilution of drug was added per well for a final volume of 150 uL/well. […] 50 μL of 0.75% DMSO in growth media was added per well for a final volume of 150 uL/well. The plates were returned to the incubator. After 5 days CellTiter 96® AQueous One Solution (Promega Corporation, Madison, Wis., USA) (25 μL/well) was added to each well and the plates were placed back in the incubator for 2-3 h. The absorbance at 490 nm was measured for each well using a plate reader. The concentrations of compounds leading to 50% and 90% inhibition of cell proliferation were determined by using the curve-fitting functionality of Microsoft Excel from plots of the logarithm of the concentration versus percent inhibition. These concentrations represent the IC50 and IC90 values, respectively.

[1] = test system: H196, a small cell lung cancer cell line; test: MTT tetrazolium dye proliferation assay; conditions: H196 cells, 5 days; for pIC50: 50% inhibition of cell proliferation; for IC90: 90% inhibition of cell proliferation
Experimental: Proliferation was evaluated in an adherent cell line by the tetrazolium dye assay according to the procedure of Denizot and Lang (F. Denizot and R. Lang J. Immunol. Methods 1986, 89, 271-277). The cell line used was H196, a small cell lung cancer cell line obtained from the ATCC (ATCC Number CRL-5823™). The cells were grown in RPMI 1640 medium supplemented with 2.5% fetal bovine serum.
Cells were seeded into clear 96 well tissue culture treated plates at 20,000 cells per well. Plates were incubated overnight at 37° C. in a humidified incubator with 5% CO2. The next day, test compounds were serially diluted to three times the final concentration in the appropriate growth medium. 50 μL of a 3× dilution of drug was added per well for a final volume of 150 uL/well. Six concentrations were tested for each compound ranging from 10 μM to 30 nM. […] 50 μL of 0.75% DMSO in growth media was added per well for a final volume of 150 uL/well. The plates were returned to the incubator and, after 5 days, the plates were analyzed as follows: 3-(4,5-dimethylthiazol-2-yl)-2,5-diphenyl-2H-tetrazolium bromide (thiazolyl blue; MTT; Sigma) was added to each well to yield a final concentration of 1.25 mg/mL. Plates were returned to the incubator for 3 hours. The MTT-containing medium was removed and the resulting formazan metabolite was solubilized in 100% ethanol while shaking for 10 minutes at room temperature. Absorbances were read in a plate reader at a wavelength of 570 nm with a 660 nm reference. The concentrations of compounds leading to 50% and 90% inhibition of cell proliferation were determined by using the curve-fitting functionality of Microsoft Excel from plots of the logarithm of the concentration versus percent inhibition. These concentrations represent the IC50 and IC90 values, respectively.

pIC50 (H146 cell line)	IC90 (H146 cell line) [nM]	pIC50 [1]	IC90 [1] [nM]	pIC50 ([1]; NCI-H196, 120 h)	IC90 ([1]; NCI-H196, 120 h) [nM]	SMILES	inhibition at 10 µM (HeLa cells; Homo sapiens, HeLa, 48 h, read-out: Activity (PCT_INHIB @ 10 μM)) [%]	Activity (PCT_INHIB @ 10 μM) (HeLa cells; 48 hours, 10 µM) [%]
5.80	3100	5.85	1900			COc1ccc(Cl)c(CN(Cc2cccc(CN3C(C(=O)N[C@H]4C[C@H]5C[C@@H]([C@@H]4C)C5(C)C)CCS3(=O)=O)c2)[C@H](CN(C)C)CC(C)(C)C)c1F (single isomer, unassigned; epimer 1) [Example 25]	96	
6.15	1200			5.89	1800	COc1ccc(Cl)c(CN(Cc2cccc(CN3C(C(=O)N[C@H]4C[C@H]5C[C@@H]([C@@H]4C)C5(C)C)CCS3(=O)=O)c2)[C@H](CN(C)C)CC(C)(C)C)c1F (single isomer, unassigned; epimer 2) [Example 26]		97
